Assay results: patent publication US5712251A, “Treatment method” (Roussel Uclaf, priority 1979, dated 1998)

Legend:
ovarian steroidogenosis = assay: Inhibitory activity on ovarian steroidogenesis in women (Example 3); assay type: in vivo
Procedure: The study was conducted for 6 consecutive cycles consisting of 2 pretreatment cycles, 2 treatment cycles and 2 post-treatment cycles. […] Daily blood samples were taken between 4 and 6 P.M. to measure seric levels of LH, FSH, progesterone and estradiol which were determined by radioimmuno-logic tests with double antibodies. The antibodies to measure LH and FSH were furnished by the National Pituitary Agency of N.I.H. of Bethesda, Md.
Estradiol and progesterone were measured with highly specific antibodies developed against 7-(O-carboxymethyl)-oxime of estradiol and 12-(O-carboxymethyl)-oxime of progesterone, respectively [3H] 17β-estradiol and ^125 I-progesterone-12-[O-carboxymethyl)-oxime]used as tracers. The serum was extracted with benzene and the steroids were separated with a LH-20 column before the determination. The radioimmunological results were exploited by the program derived from model II of Rodbard and Lewald as in Example 1 and the statistical significance was measured by the multiple level test of Ducan-Kramer of Example 1. The results are shown in the graphs of sheets 3 to 5 of the Figures.

[1] = tested on: prostate and seminal vesicules; assay: Peptide in association with an antiandrogen: weight of prostate and seminal vesicles of rats (Example 4); assay type: in vivo, rats of the Sprague-Dawley strain; settings: 100 or 500 μg peptide s.c. daily plus 5 mg product A twice daily, 14 days
Procedure: The effect of the administration of D Ser (Tbu)^6 of Gly^10 LH-RH ethylamide in association with an antiandrogen was determined on groups of 9 normal rats of the Sprague-Dawley strain weighing about 250 g. The rats received for 14 days a subcutaneous administration at 9 A.M. of D Ser (Tbu)^6 of Gly^10 LH-RH ethylamide at a dose of 20, 100 or 500 μg in physiological serum and at 9 A.M. and 4 P.M. doses of 1 or 5 mg of 5,5-dimethyl-3-[4-nitro-3-trifluoromethyl-phenyl]-2,4-imidazolidinedione (product A) in solution in sesame oil containing 5% of benzyl alcohol. One group of rats received only physiological serum and one group received only product A.
The animals were killed 24 hours after the last injection and the weight of the prostate and seminal vesicules of the rats were determined.

[2] = tested on: testicular steroidogensis; assay: Inhibitory activity against testicular steroidogenesis in men in good health, single intranasal dose (Example 1); assay type: in vivo; settings: for level of testosterone/steroids on the fourth day after administration: single intranasal dose of 500 μg, fourth day (until 6th day)
Procedure: The inhibitory activity of D Ser (Tbu)^6 or Gly^10 LH-RH ethylamide (described in German application Ser. No. 2,438,350) against testicular steroidogensis in men in good health was determined on men in good health aged 30 to 40 years. The said product was administered intranasally at a dose of 500 μg in a few drops of distilled water at 8 A.M. on the third day of the test. For 2 days prior to the treatment and for 6 days after the treatment, samples of blood were taken daily at 8 A.M., 3 P.M. and 10 P.M. On the day of administration of the LH-RH agonist, blood samples were taken at 11 A.M. and 6 P.M.
The seric concentrations of LH and FSH were measured by radioimmuno-logic dosages with double antibodies and the antibodies for measuring LH and FSH were furnished by the National Pituitary Agency of N.I.H. in Bethesda, Md. The seric concentrations of steroids was measured by radioimmuno-logic dosages in which one ml of serum was extracted with ether and the steroids were separated on a LH-20 column before measuring with radioimmuno-logic dosages. The radioimmuno-logic dosage results were determined by a program derived from model II of Rodbard et al [Second Karolinska Symposium on Research Methods in Reproductive Endocrinology, Diezfalusky Editer, Copenhague (1970), p. 79-103]. The statistical significance was determined by the "multiple level test" of Duncan-Kramer [Kramer, Biometrics, Vol 12 (1956), p. 307]. The results are shown in the graphs on sheet 1 of the Figures filed herewith.

[3] = 3rd day following peptide administration, intranasal 500 μg

Compound: CCNC(=O)[C@@H]1CCCN1C(=O)[C@H](CCCNC(=N)N)NC(=O)[C@H](CC(C)C)NC(=O)[C@@H](COC(C)(C)C)NC(=O)[C@H](Cc1ccc(O)cc1)NC(=O)[C@H](CO)NC(=O)[C@H](Cc1c[nH]c2ccccc12)NC(=O)[C@H](Cc1c[nH]cn1)NC(=O)[C@@H]1CCC(=O)N1 [D Ser (Tbu)^6 of Gly^10 LH-RH ethylamide]
- progesterone level in cycles of post-treatment, pretreatment cycles as base of 100% (ovarian steroidogenosis; 12 cycles, 6 women): 99%
- progesterone level in cycles of treatment, pretreatment cycles as base of 100% (ovarian steroidogenosis; 12 cycles, 6 women): 46%
- level of progesterone reduced as compared to the controls (ovarian steroidogenosis; review of 12 cycles (sheet 5)): 46%
- level of seric progesterone in the 2 cycles of post-treatment (ovarian steroidogenosis; sheet 4): return to normal
- reduction of seric level of progesterone as compared to controls, first treatment cycle (ovarian steroidogenosis; typical subject (sheet 3), 500 μg intranasal at 8 A.M. and 5 P.M. on one day between 4th and 9th day after LH peak): 13%
- reduction of seric level of progesterone as compared to controls, second treatment cycle (ovarian steroidogenosis; typical subject (sheet 3), same regimen): 34%
- weight of the prostate [1]: Similar, but a little less marked
- weight of the seminal vesicules [1]: approached the weight of the seminal vesicules of castrated rats
- concentration of 17-OH-progesterone relative to initial control values [2, 3]: 40%
- concentration of testosterone relative to initial control values [2, 3]: 50%
- FSH plasmatic level ([2]; intranasal 500 μg, men): increase
- LH plasmatic level ([2]; intranasal 500 μg, men): increase
- level of testosterone/steroids on the fourth day after administration ([2]; listed as D Ser (Tbu)^6 or Gly^10 LH-RH ethylamide): returned to normal
- level of testosterone/steroids on the fourth day after administration ([2]; listed as peptide): return to normal levels
